The values that follow come from patent US20170014468A1, “METHODS OF USE FOR THERAPEUTICS TARGETING THE PATHOGEN PORPHYROMONAS GINGIVALIS” (Cortexyme, Inc., priority 2014, published 2017).

Entries after “also recorded” stand apart in the source; their conditions may differ.

For one experiment, the system named is P. gingivalis. Conditions: cited from earlier work.
In a further experiment the test system is Rgp. Conditions: cited from earlier work.
The test system of experiment [1] is differentiated SH-SY5Y neuronal cells exposed to Kgp and/or RgpB. As to the kind of experiment: gingipain induced toxicity in differentiated SH-SY5Y neuronal cells. Format: cell-based. Conditions: 100 nM Kgp and/or RgpB, 24 hours, microscopy. The procedure:
SH-SY5Y neuroblastoma cells were cultured and differentiated in the presence of 5 uM retinoic acid based on established methods. Differentiation into neuronal cells was verified by observation of neurite outgrowth. The differentiated cells were exposed to 100 nM Kgp and/or RgpB for 24 hours, in the presence or absence of gingipain inhibitors. Results were recorded using a digital microscope camera.

On to “phenylalanyl-ureido-citrullinyl-valyl-cycloarginal [FA-70C1]”, for which the “growth inhibition of P. gingivalis” value in the experiment on P. gingivalis is “exhibits growth-inhibitory activity”. Moreover, the Rgp inhibition entry in the experiment on Rgp was “potent Rgp inhibitor”.
Regarding `CC(C)C[C@H](NC(=O)[C@@H](O)[C@H](N)Cc1ccccc1)C(=O)O` [bestatin], in the experiment on P. gingivalis, the “growth inhibition of P. gingivalis” value is listed as “selectively inhibits growth”.
With `CN(NC(=O)CC[C@H](NC(=O)OCc1ccccc1)C(=O)N[C@@H](CCCCN)C(=O)C(=O)NCc1ccccc1)c1ccccc1` [Kyt-36], the “protection against gingipain induced toxicity / cell death” value was “can protect neurons; also recorded: more protective than Rgp inhibitors; also recorded: largely blocks gingipain induced toxicity” in experiment [1] and “prevented gingipain induced neurodegeneration” in experiment [1] (listed as Kyt 36).
Regarding `NC(=O)CI` [iodoacetamide], the “protection against gingipain induced toxicity / cell death” value in experiment [1] is “blocks toxicity”; in experiment [1] (listed as Iodoacetamide) it was “prevents this effect”.
On to `CN(C)C(=O)[C@H](CCCCN)NC(=O)C(=O)[C@H](CCCN=C(N)N)NC(=O)[C@H](CCCCN)NC(=O)OCc1ccccc1` [Kyt-1], for which the “protection against gingipain induced toxicity / cell death” value in experiment [1] is on record as “can protect neurons; also recorded: effective but less so”.
